Each compound was assayed on SKM MF (assay: SKM MF AC1.4: ATPase screen of skeletal sarcomeric proteins with PK/LDH coupled enzyme system). Conditions: not given.
Type: biochemical
Design: AC1.4 Median: unit not given here
Experimental: For example, test compounds can be assayed in a highly parallel fashion by using multiwell plates by placing the compounds either individually in wells or testing them in mixtures. Assay components including the target protein complex, coupling enzymes and substrates, and ATP can then be added to the wells and the absorbance or fluorescence of each well of the plate can be measured with a plate reader.
In some embodiments, the method uses a 384 well plate format and a 25 μL reaction volume. A pyruvate kinase/lactate dehydrogenase coupled enzyme system (Huang T G and Hackney D D. (1994) J Biol Chem 269(23):16493-501) can be used to measure the rate of ATP hydrolysis in each well. As will be appreciated by those in the art, the assay components are added in buffers and reagents. The incubation periods can be optimized to give adequate detection signals over the background. The assay can be done in real time giving the kinetics of ATP hydrolysis which increases the signal to noise ratio of the assay.
Just prior to screening, the actin, tropomyosin, and troponin complex are mixed together in the desired ratio (e.g., 7:1:1) to achieve maximal calcium regulation of the actin filament. The screen is conducted at a pCa=6.5. This calcium concentration is in the physiological range during muscle contraction.
To measure the generation of ADP during the reaction, a pyruvate kinase/lactate dehydrogenase/NADH coupled enzyme system (PK/LDH) is added to the actin. The myosin is kept separately. The plates are read in real time so that kinetic curves are obtained. These compounds are in DMSO and were already spotted onto the bottoms of 384 well plates at 10 to 40 μg/ml final concentration.

SKM MF AC1.4 | Compound
5.7 µM | CCC(CC)n1c(O)nc2ncc(C)cc21 [6-methyl-1-(pentan-3-yl)-1H-imidazo[4,5-b]pyridin-2-ol]
19.2 µM | CCC(CC)n1c(=O)[nH]c2ncccc21 [1-(pentan-3-yl)-1H-imidazo[4,5-b]pyridin-2(3H)-one]
0.9 µM | CCC(CC)n1c(O)nc2ncc(Br)cc21 [6-bromo-1-(pentan-3-yl)-1H-imidazo[4,5-b]pyridin-2-ol]

Same assay, conditions: median

Compound | AC1.4 Median
CC(Cn1c(O)nc2ncc(Cl)cc21)c1ccccc1 (centres unmarked) [6-chloro-1-(2-phenylpropyl)imidazo[4,5-b]pyridin-2-ol] | 22.4532
COC(=O)N1CCN(C[C@@H](CC(C)C)n2c(O)nc3cc(Cl)cnc32)CC1 [methyl 4-[(2R)-2-(6-chloro-2-hydroxyimidazo[4,5-b]pyridinyl)-4-methylpentyl]piperazinecarboxylate] | 8.3875
1-(ethylpropyl)-6-(2-methylprop-1-enyl)imidazo[4,5-b]pyridin-2-ol | 35.3882
CCC(C(C)C)n1c(O)nc2ncc(Cl)cc21 (centres unmarked) [6-chloro-1-(1-ethyl-2-methylpropyl)imidazo[4,5-b]pyridin-2-ol] | 10.7918
CCC(CC)n1c(O)nc2ncc(Cl)c(C3=CCN(C(=O)OC(C)(C)C)CC3)c21 [tert-butyl 4-[6-chloro-1-(ethylpropyl)-2-hydroxyimidazo[4,5-b]pyridin-7-yl]-1,2,5,6-tetrahydropyridinecarboxylate] | 26.7443
7-[(dimethylamino)methyl]-6-chloro-1-(ethylpropyl)benzimidazol-2-ol | 13.3270
CCC(CC)n1c(O)nc2ncc(Cl)c(/C=N/OCc3ccccc3)c21 [7-[(1E)-2-(phenylmethoxy)-2-azavinyl]-6-chloro-1-(ethylpropyl)imidazo[4,5-b]pyridin-2-ol] | 39.7159
CC(C)CC(C)n1c(O)nc2ncc(Cl)cc21 (centres unmarked) [1-(1,3-dimethylbutyl)-6-chloroimidazo[4,5-b]pyridin-2-ol] | 5.7765
CCC(CC)n1c(O)nc2ncc(Cl)c(/C=N\OCC(C)C)c21 [7-[(1Z)-2-(2-methylpropoxy)-2-azavinyl]-6-chloro-1-(ethylpropyl)imidazo[4,5-b]pyridin-2-ol] | 22.4644
methyl 1-(ethylpropyl)-2-hydroxyimidazo[4,5-b]pyridine-7-carboxylate | 17.1735
Oc1nc2ncc(Cl)cc2n1[C@H](Cc1ccccn1)CN1CCOCC1 [1-[(1R)-2-morpholin-4-yl-1-(2-pyridylmethyl)ethyl]-6-chloroimidazo[4,5-b]pyridin-2-ol] | 10.9895
CCC(CC)n1c(O)nc2ncc(Cl)c(/C=N/OCC(C)C)c21 [7-[(1E)-2-(2-methylpropoxy)-2-azavinyl]-6-chloro-1-(ethylpropyl)imidazo[4,5-b]pyridin-2-ol] | 11.4532
CCC(CC)n1c(=O)[nH]c2ncccc21 [1-(pentan-3-yl)-1H-imidazo[4,5-b]pyridin-2(3H)-one] | 19.1998
COCCCCn1c(O)nc2ncc(Cl)cc21 [6-chloro-1-[(methoxymethyl)propyl]imidazo[4,5-b]pyridin-2-ol] | 45.5421
CCOC(=O)CSSCc1c(Cl)cnc2nc(O)n(C(CC)CC)c12 [ethyl 2-({[6-chloro-1-(ethylpropyl)-2-hydroxyimidazo[4,5-b]pyridin-7-yl]methyl}disulfanyl)acetate] | 11.7273
C=CCc1c(Cl)cnc2nc(O)n(C(CC)CC)c12 [6-chloro-1-(ethylpropyl)-7-prop-2-enylimidazo[4,5-b]pyridin-2-ol] | 3.6218
CC[C@@H](C)n1c(O)nc2ncc(Cl)cc21 [1-((1R)-1-methylpropyl)-6-chloroimidazo[4,5-b]pyridin-2-ol] | 10.6839
CCC(CC)n1c(O)nc2ncc(F)cc21 [6-fluoro-1-(pentan-3-yl)-1H-imidazo[4,5-b]pyridin-2-ol] | 12.9347
CC(C)(Cc1ccccc1)n1c(O)nc2ncc(Cl)cc21 [1-(1,1-dimethyl-2-phenylethyl)-6-chloroimidazo[4,5-b]pyridin-2-ol] | 8.2080
CC[C@H](CCO)n1c(O)nc2ncc(Cl)cc21 [1-((1R)-1-ethyl-3-hydroxypropyl)-6-chloroimidazo[4,5-b]pyridin-2-ol] | 7.7806
CCC(CO)n1c(O)nc2ncc(Cl)cc21 (centres unmarked) [6-chloro-1-(1-ethyl-2-hydroxyethyl)imidazo[4,5-b]pyridin-2-ol] | 8.4752
CCC(CC)n1c(O)nc2ncc(Cl)c(/C=N/OC(C)(C)C)c21 [7-[(1E)-2-(tert-butoxy)-2-azavinyl]-6-chloro-1-(ethylpropyl)imidazo[4,5-b]pyridin-2-ol] | 1.8945
CCC(CC)n1c(O)nc2ncc(Cl)c(C#N)c21 [6-chloro-1-(ethylpropyl)-2-hydroxyimidazo[4,5-b]pyridine-7-carbonitrile] | 1.0215
1-(ethylpropyl)-6-methoxyimidazo[4,5-b]pyridin-2-ol | 24.0256
CCCC(CCC)n1c(O)nc2ncc(Cl)cc21 [6-chloro-1-(propylbutyl)imidazo[4,5-b]pyridin-2-ol] | 3.7477

Next, values leading:

AC1.4 Median | Compound
5.0392 | CC(C)C[C@H](CN1CCOCC1)n1c(O)nc2ncc(Cl)cc21 [1-[(1R)-3-methyl-1-(morpholin-4-ylmethyl)butyl]-6-chloroimidazo[4,5-b]pyridin-2-ol]
11.2261 | CC[C@H](CN=[N+]=[N-])n1c(O)nc2ncc(Cl)cc21 [1-((1R)-3-diazo-1-ethyl-3-azaprop-3-enyl)-6-chloroimidazo[4,5-b]pyridin-2-ol]
18.2493 | methyl 4-[(2R)-2-(6-chloro-2-hydroxyimidazo[4,5-b]pyridinyl)butyl]piperazinecarboxylate
37.2312 | CC[C@@H](CCO)n1c(O)nc2ncc(Cl)c(I)c21 [1-((1S)-1-ethyl-3-hydroxypropyl)-6-chloro-7-iodoimidazo[4,5-b]pyridin-2-ol]
42.6538 | 6-chloro-1-(ethylpropyl)-7-(hydroxymethyl)imidazo[4,5-b]pyridin-2-ol
48.1977 | CC(C)(C)C(CO)n1c(O)nc2ncc(Cl)cc21 (centres unmarked) [1-[1-(tert-butyl)-2-hydroxyethyl]-6-chloroimidazo[4,5-b]pyridin-2-ol]
10.2517 | CCC(CC)n1c(O)nc2ncc(C)cc21 [6-methyl-1-(pentan-3-yl)-1H-imidazo[4,5-b]pyridin-2-ol]
2.6422 | CCC(CC(C)C)n1c(O)nc2ncc(Cl)cc21 (centres unmarked) [6-chloro-1-(1-ethyl-3-methylbutyl)imidazo[4,5-b]pyridin-2-ol]
8.8149 | Oc1nc2ncc(Cl)cc2n1[C@H](Cc1ccccc1)CN1CCOCC1 [1-[(1R)-2-morpholin-4-yl-1-benzylethyl]-6-chloroimidazo[4,5-b]pyridin-2-ol]
47.6668 | CCC(CC)n1c(O)nc2ncc(C(F)(F)F)cc21 [1-(ethylpropyl)-6-(trifluoromethyl)imidazo[4,5-b]pyridin-2-ol]
27.8274 | 1-(ethylpropyl)-6-prop-1-ynylimidazo[4,5-b]pyridin-2-ol
15.2631 | CC[C@H](CN1CCOCC1)n1c(O)nc2ncc(Cl)cc21 [1-[(1R)-1-(morpholin-4-ylmethyl)propyl]-6-chloroimidazo[4,5-b]pyridin-2-ol]
25.2370 | CCC(CC)Cn1c(O)nc2ncc(Cl)cc21 [6-chloro-1-(2-ethylbutyl)-1H-imidazo[4,5-b]pyridin-2-ol]
10.1217 | 1-(ethylpropyl)-6-(1-methylvinyl)imidazo[4,5-b]pyridin-2-ol
1.1778 | CCC(CC)n1c(O)nc2ncc(Cl)c(I)c21 [6-chloro-1-(ethylpropyl)-7-iodoimidazo[4,5-b]pyridin-2-ol]
1.8005 | C=C(C)c1c(Cl)cnc2nc(O)n(C(CC)CC)c12 [6-chloro-1-(ethylpropyl)-7-(1-methylvinyl)imidazo[4,5-b]pyridin-2-ol]
9.8768 | CCC(CC)n1c(O)nc2nc(Br)c(Br)cc21 [5,6-dibromo-1-(ethylpropyl)imidazo[4,5-b]pyridin-2-ol]
9.8213 | CC(C)(C)n1c(O)nc2ncc(Cl)cc21 [1-(tert-butyl)-6-chloroimidazo[4,5-b]pyridin-2-ol]
1.7026 | COC(=O)c1c(Cl)cnc2nc(O)[nH]c12 [methyl 6-chloro-2-hydroxyimidazo[4,5-b]pyridine-7-carboxylate]
30.7467 | 6-chloro-1-(ethylpropyl)-7-(hydroxyethyl)imidazo[4,5-b]pyridin-2-ol
8.6854 | CCC(CC)n1c(O)nc2nc(Cl)c(Cl)cc21 [5,6-dichloro-1-(ethylpropyl)imidazo[4,5-b]pyridin-2-ol]
22.3369 | 1-(ethylpropyl)-6-(3-thienyl)imidazo[4,5-b]pyridin-2-ol
1.1739 | CCC(CC)n1c(O)nc2ncc(Br)cc21 [6-bromo-1-(pentan-3-yl)-1H-imidazo[4,5-b]pyridin-2-ol]
41.9678 | CCc1cnc2nc(O)n(C(CC)CC)c2c1 [6-ethyl-1-(pentan-3-yl)-1H-imidazo[4,5-b]pyridin-2-ol]
8.0408 | Oc1nc2ncc(Cl)cc2n1CCCC(F)(F)F [6-chloro-1-[(trifluoromethyl)propyl]imidazo[4,5-b]pyridin-2-ol]

Same assay, conditions: median value (footnote †)

SKM MF AC1.4 (μM) | Compound
25.237^† μM | CCC(CC)Cn1c(O)nc2ncc(Cl)cc21 [6-chloro-1-(2-ethylbutyl)-1H-imidazo[4,5-b]pyridin-2-ol]
12.9347^† μM | CCC(CC)n1c(O)nc2ncc(F)cc21 [6-fluoro-1-(pentan-3-yl)-1H-imidazo[4,5-b]pyridin-2-ol]
41.9678^† μM | CCc1cnc2nc(O)n(C(CC)CC)c2c1 [6-ethyl-1-(pentan-3-yl)-1H-imidazo[4,5-b]pyridin-2-ol]

Source: patent US7851484B2, “Certain chemical entities, compositions, and methods” (Cytokinetics, Inc., priority 2007, dated 2010)
